Measured values from US10150728B2, “Alkylene derivatives” (Shionogi & Co., Ltd., priority 2013, dated 2018).

target: recombinant human ACC2 (Homo sapiens (Human), UniProt O00763); assay: Measurement of inhibitory activity on human ACC2 (MALDI-TOF MS, acetyl CoA to malonyl CoA conversion); format: biochemical; conditions: Table 154
From the text: Preparation 1: Preparation of Recombinant Human ACC2
After a cDNA encoding human ACC2 (27 amino acid residue to 2458 amino acid residues from the N-terminus) was cloned from human kidney cDNA library (Clontech), human ACC2 gene containing His-tag sequence at 5′ terminus was inserted into pFastBac1 (Invitrogen). Recombinant baculovirus was generated using Bac-to-Bac baculovirus expression system (Invitrogen) according to the manufacturer's protocol. To express human ACC2, Sf-9 cells were infected with recombinant baculovirus. After infected cells were disrupted, the filtrated lysate was subjected to Ni-affinity chromatography and anion-exchange chromatography. The fractions containing human ACC2 protein were pooled as recombinant human ACC2 solution.
The Measurement of Inhibitory Activity on Human ACC1 and the ACC2
Recombinant human ACC1 and recombinant human ACC2, which were prepared by the method mentioned above, were preincubated with assay buffer solution (50 mM HEPES-KOH (pH 7.4), 10 mM magnesium chloride, 6-10 mM potassium citrate, 4 mM reduced form of glutathione, 1.5 mg/ml bovine serum albumin) for one hour. Then, 0.2 μL of each this invention compound solution (in DMSO) were dispensed to 384-well microplate, 5 μL of the preincubated enzyme solution and 5 μL of substrate solution (50 mM HEPES-KOH (pH 7.4), 1 mM ATP, 0.8 mM acetyl CoA and 25-50 mM potassium bicarbonate) were added to microplate. After centrifugation and shaking, the reaction mixtures were incubated in a humidified box at room temperature for 1 to 3 hours. After the incubation, the enzyme reactions were stopped by the addition of EDTA. Then, after the samples were cocrystallized with CHCA (α-cyano-4-hydroxy cinnamic acid) matrices on MALDI target plate, by using the matrix assist laser […] time-of-flight mass spectrometer (MALDI-TOF MS), samples were measured in reflector negative mode. Deprotonated ions of acetyl CoA (AcCoA) of substrate and malonyl CoA (MalCoA) of the reaction product were detected, then, the conversion rates of acetyl CoA to malonyl CoA was calculated by the intensity of [MalCoA-H]−/(Intensity of [MalCoA-H]−+Intensity of [AcCoA-H]−) using each signal strength. […] In addition, potassium citrate concentrations in assay buffer solution, potassium hydrogen carbonate concentrations in substrate solution and incubation time were adjusted by each lot of enzyme.

Sequence of recombinant human ACC2 (O00763 27-2458): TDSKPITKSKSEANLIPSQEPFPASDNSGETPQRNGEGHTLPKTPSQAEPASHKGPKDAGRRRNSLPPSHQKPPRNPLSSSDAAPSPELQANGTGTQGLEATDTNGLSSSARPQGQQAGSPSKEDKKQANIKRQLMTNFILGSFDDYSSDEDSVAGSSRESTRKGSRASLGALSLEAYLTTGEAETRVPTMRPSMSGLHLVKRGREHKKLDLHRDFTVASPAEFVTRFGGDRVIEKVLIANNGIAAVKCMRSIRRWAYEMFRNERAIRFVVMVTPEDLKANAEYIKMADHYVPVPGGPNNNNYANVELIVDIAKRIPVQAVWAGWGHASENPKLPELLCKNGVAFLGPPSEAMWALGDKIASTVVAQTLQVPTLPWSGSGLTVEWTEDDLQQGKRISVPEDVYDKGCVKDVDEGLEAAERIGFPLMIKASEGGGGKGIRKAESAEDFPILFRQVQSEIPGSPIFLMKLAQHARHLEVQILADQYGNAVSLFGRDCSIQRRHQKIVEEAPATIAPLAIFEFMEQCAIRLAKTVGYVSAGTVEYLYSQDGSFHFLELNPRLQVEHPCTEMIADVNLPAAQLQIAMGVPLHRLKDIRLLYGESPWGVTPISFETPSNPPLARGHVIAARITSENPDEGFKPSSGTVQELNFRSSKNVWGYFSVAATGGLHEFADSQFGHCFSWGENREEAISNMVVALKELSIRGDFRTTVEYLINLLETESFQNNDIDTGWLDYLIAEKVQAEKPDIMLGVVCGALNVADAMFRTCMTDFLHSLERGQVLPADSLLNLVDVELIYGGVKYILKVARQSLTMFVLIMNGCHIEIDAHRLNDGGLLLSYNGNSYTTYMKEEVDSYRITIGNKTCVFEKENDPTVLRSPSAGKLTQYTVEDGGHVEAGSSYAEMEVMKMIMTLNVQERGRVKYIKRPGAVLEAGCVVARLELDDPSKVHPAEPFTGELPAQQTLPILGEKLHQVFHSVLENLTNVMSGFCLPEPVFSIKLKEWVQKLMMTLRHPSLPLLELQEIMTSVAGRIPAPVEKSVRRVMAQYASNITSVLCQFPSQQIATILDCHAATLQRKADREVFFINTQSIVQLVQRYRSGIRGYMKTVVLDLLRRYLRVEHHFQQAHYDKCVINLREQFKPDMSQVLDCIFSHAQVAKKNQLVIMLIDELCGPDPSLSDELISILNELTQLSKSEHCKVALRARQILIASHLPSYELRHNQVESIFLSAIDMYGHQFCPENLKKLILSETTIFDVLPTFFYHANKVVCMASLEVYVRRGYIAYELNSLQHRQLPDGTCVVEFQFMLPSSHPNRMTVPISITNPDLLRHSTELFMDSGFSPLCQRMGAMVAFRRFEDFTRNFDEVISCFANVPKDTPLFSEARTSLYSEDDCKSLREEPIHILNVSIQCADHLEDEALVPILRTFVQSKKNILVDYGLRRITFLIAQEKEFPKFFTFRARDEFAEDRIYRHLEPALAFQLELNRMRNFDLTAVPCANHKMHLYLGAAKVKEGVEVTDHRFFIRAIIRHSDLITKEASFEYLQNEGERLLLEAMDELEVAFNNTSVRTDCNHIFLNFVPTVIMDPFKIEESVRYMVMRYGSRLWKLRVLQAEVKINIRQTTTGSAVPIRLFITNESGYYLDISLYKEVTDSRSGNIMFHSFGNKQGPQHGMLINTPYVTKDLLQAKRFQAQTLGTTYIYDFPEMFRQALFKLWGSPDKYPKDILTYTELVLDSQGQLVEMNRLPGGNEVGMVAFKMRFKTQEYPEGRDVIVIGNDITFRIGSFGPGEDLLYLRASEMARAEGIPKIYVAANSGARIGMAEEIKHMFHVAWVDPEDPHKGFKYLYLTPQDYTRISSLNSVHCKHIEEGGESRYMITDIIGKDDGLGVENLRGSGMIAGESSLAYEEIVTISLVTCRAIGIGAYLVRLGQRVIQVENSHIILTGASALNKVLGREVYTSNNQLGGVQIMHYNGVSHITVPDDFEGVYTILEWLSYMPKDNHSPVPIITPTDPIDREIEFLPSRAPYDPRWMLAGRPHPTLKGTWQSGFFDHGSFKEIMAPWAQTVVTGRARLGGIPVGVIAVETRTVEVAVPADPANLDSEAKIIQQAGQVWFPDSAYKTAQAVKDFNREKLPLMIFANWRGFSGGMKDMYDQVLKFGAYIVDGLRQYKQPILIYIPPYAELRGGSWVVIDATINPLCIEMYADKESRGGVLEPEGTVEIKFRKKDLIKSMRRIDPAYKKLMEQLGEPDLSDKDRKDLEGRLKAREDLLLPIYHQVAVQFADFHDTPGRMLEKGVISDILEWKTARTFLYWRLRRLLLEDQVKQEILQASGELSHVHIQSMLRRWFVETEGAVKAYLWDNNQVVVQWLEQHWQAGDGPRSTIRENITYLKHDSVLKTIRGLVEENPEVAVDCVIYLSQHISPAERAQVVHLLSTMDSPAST

| IC50 | Structure (SMILES) |
| --- | --- |
| 3800 nM | CC(=O)N[C@@H](C)COc1cnc(Oc2ccc3c(c2Cl)OCCN(C(C)C)C3=O)cn1 [Compound I-082] |
| 351 nM | CCOc1nc2ccc(O[C@H]3CC[C@](C)(OC[C@H](C)NC(C)=O)CC3)c(Cl)c2s1 [Compound I-083] |
| 42 nM | CCOc1nc2ccc(OC[C@H]3C[C@@H](OC[C@H](C)NC(C)=O)C3)c(F)c2s1 [Compound I-086] |
| 65 nM | CCOc1nc2ccc(OC[C@H]3C[C@@H](OC[C@H](C)NC(C)=O)C3)c(Cl)c2s1 [Compound I-087] |
| 15 nM | CCOc1nc2ccc(OC[C@H]3C[C@H](OC[C@H](C)NC(C)=O)C3)c(F)c2s1 [Compound I-088] |
| 62 nM | CCOc1nc2ccc(OC[C@H]3C[C@H](OC[C@H](C)NC(C)=O)C3)c(Cl)c2s1 [Compound I-089] |
| 45 nM | CC(=O)N[C@@H](C)COc1cnc(Oc2ccc(C(=O)Nc3ccc(F)cc3)c(F)c2F)cn1 [Compound I-090] |
| 89 nM | CCOc1nc2ccc(Oc3cnc(OC[C@H](CO)NC(C)=O)cn3)c(F)c2s1 [Compound I-092] |
| 187 nM | CC(=O)N[C@@H](C)CO[C@H]1CC[C@H](Oc2ccc3c(c2Cl)OCCN(CC(F)(F)F)C3=O)CC1 [Compound I-094] |
| 1050 nM | CC(=O)N[C@@H](C)COc1cnc(Oc2ccc(C(=O)NCC(C)C)c(F)c2F)cn1 [Compound I-095] |
| 775 nM | CC(=O)N[C@@H](C)COc1cnc(Oc2ccc(C(=O)N3CCCCC3)c(F)c2F)cn1 [Compound I-096] |
| 97 nM | CC(=O)N[C@@H](C)CO[C@H]1C[C@H](COc2ccc3nc(C(C)(F)F)sc3c2F)C1 [Compound I-097] |
| 148 nM | CC(=O)N[C@@H](C)CO[C@H]1C[C@H](COc2ccc3nc(C(C)(C)O)sc3c2F)C1 [Compound I-099] |
| 27 nM | CCOc1nc2cc(Cl)c(OC[C@H]3C[C@H](OC[C@H](C)NC(C)=O)C3)cc2s1 [Compound I-100] |
| 26 nM | CCOc1nc2ccc(OC[C@H]3C[C@H](OC[C@H](C)NC(C)=O)C3)cc2s1 [Compound I-101] |
| 44 nM | CC(=O)N[C@@H](C)CO[C@H]1CC[C@H](Oc2ncc(-c3ccccc3)cc2F)CC1 [Compound I-102] |
| 12 nM | CC(=O)N[C@@H](C)CO[C@H]1CC[C@H](Oc2ncc(-c3ccccc3)cc2Cl)CC1 [Compound I-104] |
| 182 nM | CC(=O)N[C@@H](C)CO[C@H]1CC[C@H](Oc2ncc(-c3ccccc3)cc2C#N)CC1 [Compound I-105] |

same assay, conditions: Tables 155-159

| IC50 | Structure (SMILES) |
| --- | --- |
| 97 nM | CC(=O)N[C@@H](C)CO[C@H]1C[C@H](COc2ccc3nc(C(C)(F)F)sc3c2F)C1 [Compound I-107] |
| 792 nM | CC(=O)N[C@@H](C)CO[C@H]1C[C@H](COc2ccc3nc(C(C)(F)F)sc3c2Cl)C1 [Compound I-108] |
| 148 nM | CC(=O)N[C@@H](C)CO[C@H]1C[C@H](COc2ccc3nc(C(C)(C)O)sc3c2F)C1 [Compound I-109] |
| 27 nM | CCOc1nc2cc(Cl)c(OC[C@H]3C[C@H](OC[C@H](C)NC(C)=O)C3)cc2s1 [Compound I-110] |
| 26 nM | CCOc1nc2ccc(OC[C@H]3C[C@H](OC[C@H](C)NC(C)=O)C3)cc2s1 [Compound I-111] |
| 31 nM | CC(=O)N[C@@H](C)CO[C@H]1CC[C@H](Oc2ccc3nc(OC(C)CF)sc3c2Cl)CC1 (some centres unmarked) [Compound I-112] |
| 10 nM | CC(=O)N[C@@H](C)CO[C@H]1CC[C@H](Oc2ccc3nc(OC(C)C)sc3c2Cl)CC1 [Compound I-113] |
| 193 nM | CC(=O)N[C@@H](C)CO[C@H]1CC[C@H](Oc2cc3sc(OC(C)C)nc3cc2Cl)CC1 [Compound I-114] |
| 12 nM | CCOc1nc2ccc(OC[C@]3(F)C[C@@H](OC[C@H](C)NC(C)=O)C3)c(F)c2s1 [Compound I-115] |
| 41 nM | CCOc1nc2ccc(OC[C@]3(F)C[C@@H](OC[C@H](C)NC(C)=O)C3)c(Cl)c2s1 [Compound I-116] |
| 7 nM | CC(=O)N[C@@H](C)CO[C@H]1CC[C@H](Oc2ccc3nc(C4(F)CC4)sc3c2F)CC1 [Compound I-117] |
| 10 nM | CC(=O)N[C@@H](C)CO[C@H]1CC[C@H](Oc2ccc3nc(OC4CC4)sc3c2F)CC1 [Compound I-118] |
| 4 nM | CC(=O)N[C@@H](C)CO[C@H]1CC[C@H](Oc2ccc3nc(OCC4CC4)sc3c2F)CC1 [Compound I-119] |
| 22 nM | CC(=O)N[C@@H](C)CO[C@H]1CC[C@H](Oc2ccc3nc(OCC4(F)COC4)sc3c2F)CC1 [Compound I-120] |
| 9 nM | CC(=O)N[C@@H](C)CO[C@H]1CC[C@H](Oc2ccc3nc(OCC(F)(F)F)sc3c2F)CC1 [Compound I-121] |
| 12 nM | CC(=O)N[C@@H](C)CO[C@H]1CC[C@H](Oc2ccc3nc(OC(C)C)sc3c2F)CC1 [Compound I-122] |
| 15 nM | CC(=O)N[C@@H](C)CO[C@H]1CC[C@H](Oc2ccc3nc(OCC(F)F)sc3c2F)CC1 [Compound I-123] |
| 37 nM | CC(=O)N[C@@H](C)CO[C@H]1CC[C@H](Oc2ccc3nc(Cl)sc3c2F)CC1 [Compound I-124] |
| 29 nM | CC(=O)N[C@@H](C)CO[C@H]1CC[C@H](Oc2ccc3nc(OC4(C)CC4)sc3c2F)CC1 [Compound I-125] |
| 398 nM | CC(=O)N[C@@H](C)CO[C@H]1C[C@H](COc2cc3sc(C(C)C)nc3cn2)C1 [Compound I-126] |
| 84 nM | CC(=O)N[C@@H](C)CO[C@H]1C[C@H](COc2ccc3nc(C(C)C)sc3c2F)C1 [Compound I-127] |
| 50 nM | CC(=O)N[C@@H](C)CO[C@H]1C[C@H](COc2ccc3nc(C(C)C)sc3c2)C1 [Compound I-128] |

| IC50 | Structure (SMILES) |
| --- | --- |
| 139 nM | CC(=O)N[C@@H](C)CO[C@H]1CC[C@H](Oc2ccc3nc(OCC(C)(C)O)sc3c2F)CC1 [Compound I-129] |
| 57 nM | CC(=O)N[C@@H](C)CO[C@H]1CC[C@H](Oc2ccc3nc(OC4COC4)sc3c2F)CC1 [Compound I-130] |
| 334 nM | CC(=O)N[C@@H](C)CO[C@H]1CC[C@H](Oc2ccc3nc(OCC(C)(C)OC4CCCCO4)sc3c2F)CC1 (some centres unmarked) [Compound I-131] |
| 48 nM | CC(=O)N[C@@H](C)CO[C@H]1C[C@H](COc2c(F)cc3nc(C(C)C)sc3c2Cl)C1 [Compound I-132] |
| 77 nM | CC(=O)N[C@@H](C)CO[C@H]1C[C@H](COc2cc3sc(C(C)C)nc3cc2F)C1 [Compound I-133] |
| 23 nM | CC(=O)N[C@@H](C)CO[C@H]1CC[C@H](Oc2ccc3nc(C4(F)COC4)sc3c2F)CC1 [Compound I-134] |
| 16 nM | CC(=O)N[C@@H](C)CO[C@H]1C[C@H](COc2ccc3nc(C(C)C)sc3n2)C1 [Compound I-135] |
| 87 nM | CC(=O)N[C@@H](C)CO[C@H]1C[C@](F)(COc2ccc3nc(C(C)(F)F)sc3c2F)C1 [Compound I-136] |
| 403 nM | CC(=O)N[C@@H](C)CO[C@H]1C[C@](F)(COc2ccc3nc(C(C)(F)F)sc3c2Cl)C1 [Compound I-137] |
| 91 nM | CC(=O)N[C@@H](C)CO[C@H]1C[C@H](COc2ccc3nc(C4(F)CC4)sc3c2F)C1 [Compound I-138] |
| 90 nM | CC(=O)N[C@@H](C)CO[C@H]1C[C@H](COc2ccc3nc(C(C)(F)F)sc3c2)C1 [Compound I-139] |
| 144 nM | CC(=O)N[C@@H](C)CO[C@H]1C[C@H](COc2ccc3nc(OC[C@@H](C)F)sc3c2)C1 [Compound I-140] |
| 80 nM | CC(=O)N[C@@H](C)CO[C@H]1C[C@H](COc2c(Cl)cc3nc(C(C)C)sc3c2Cl)C1 [Compound I-141] |
| 181 nM | C[C@@H](CO[C@H]1CC[C@H](Oc2ccc3nc(C(C)(F)F)sc3c2F)CC1)NS(C)(=O)=O [Compound I-142] |
| 120 nM | C[C@@H](CO[C@H]1CC[C@H](Oc2ccc3nc(C(C)(F)F)sc3c2F)CC1)NC(=O)CO [Compound I-143] |
| 127 nM | CC(=O)N[C@@H](C)CO[C@H]1C[C@](F)(COc2ccc3nc(C(C)C)sc3n2)C1 [Compound I-144] |
| 190 nM | CCC(O)(CC)c1nc2ccc(O[C@H]3CC[C@H](OC[C@H](C)NC(C)=O)CC3)c(F)c2s1 [Compound I-145] |
| 44 nM | CC(=O)N[C@@H](C)CO[C@H]1CC[C@H](Oc2ccc3nc(C4(O)CCCC4)sc3c2F)CC1 [Compound I-146] |
| 12 nM | CC(=O)N[C@@H](C)CO[C@H]1C[C@H](COc2ccc3nc(C(C)(F)F)sc3n2)C1 [Compound I-147] |
| 404 nM | CC(=O)N[C@@H](C)CO[C@H]1C[C@H](COc2ccc3nc(C(C)(C)O)sc3c2)C1 [Compound I-148] |
| 63 nM | CC(=O)N[C@@H](C)CO[C@H]1CC[C@H](Oc2ccc3nc(OCC(C)(C)C#N)sc3c2F)CC1 [Compound I-149] |
| 36 nM | CC(=O)N[C@@H](C)CO[C@H]1CC[C@H](Oc2ccc3nc(OCC4(C#N)CC4)sc3c2F)CC1 [Compound I-150] |
